The text below walks through data of patent US20220110916A1, “Antioxidant and Use Thereof” (Bioradical Research Institute Corp., priority 2019, published 2022).

Assay [1] deals with rat auricular subcutaneous blood vessel. Put plainly: Vasodilation of rat auricular subcutaneous blood vessel after intravenous administration. It is filed as in vivo. The text has this: Oxidative stress caused by reactive oxygen species is known to reduce NO production in vascular endothelial cells, resulting in vasoconstriction and decreased blood flow. Therefore, using vasodilation as an indicator, it was examined whether the antioxidant of the present invention scavenges reactive oxygen species in vivo.
Eight-week old or older female rats (Wistar, body weight: approximately 200 g, n=1) were anesthetized by subcutaneous administration of urethane so as to be […] body weight. The hair of the auricles of the rats was then removed and the rats were fixed on a fixing table. […]
BisEP-C3 was dissolved in a saline solution to achieve a concentration of 3 mg/ml. […] Then, the hemodynamic course of the rat auricular subcutaneous blood vessel was photographed and recorded using a microscope at a predetermined period of time (30, 60, 120 or 180 minutes) before and after the administration.
The obtained images were classified into three blood vessel thicknesses (thick: 35-45 μm, medium: 15-20 μm, thin: 7-9 μm) based on the diameter of the blood vessel before administration. […] Further, for each selected site, the relative blood vessel diameter was calculated after the measurement of the blood vessel diameter, with the blood vessel diameter before administration being a reference (1). […]

Assay [2] concerns mesentery blood vessels of rats given lipopolysaccharide. Put plainly: LPS-induced mesenteric bleeding and leukocyte rolling in rats. Format: in vivo, rat. The text has this: Administration of lipopolysaccharide to the mesentery vicinity blood vessels generates reactive oxygen species (ROS), causing vascular disorder and bleeding. Therefore, using the bleeding area as an indicator, it was examined whether the antioxidant of the present invention scavenges ROS in vivo.
Eight-week old or older female rats (Wistar, body weight: approximately 200 g, n=1) were anesthetized by subcutaneous administration of urethane (1.75 g/kg body weight). The rats were then opened and fixed on a fixing table in such a manner that the mesentery of the rats was observable. After the fixing, the fixing table was placed under a microscope (Nikon OPTIphoto, produced by Nikon Corporation) so that the mesentery could be observed. In addition, a catheter was placed in the groin vein of the rat.
1 μg/ml of lipopolysaccharide ((LPS), produced by Sigma-Aldrich Co., Ltd.) derived from Pseudomonas aeruginosa (ATCC27316) was added dropwise once (20 μL, 20 ng/sight) and allowed to stand for 30 minutes. […] In the obtained photograph, the area of the region where bleeding occurred (bleeding area) was detected based on the number of pixels, and then the proportion of the area (bleeding area proportion) occupied per visual field was calculated. […]

For the compound `CCN1N=C(C)/C(=C\C=C\c2c(C)nn(CC)c2O)C1=O` (racemic) [BisEp-C3, 2,4-dihydro-4-[3-(1-ethyl-5-hydroxy-3-methyl-1H-pyrazol-4-yl)-2-propen-1-ylidene]-2-ethyl-5-methyl-3H-pyrazol-3-one], the “relative value of the blood vessel diameter” value in assay [1] (3 mg/kg body weight intravenously, 30, 60, 120 or 180 minutes, vs saline control, n=1, FIG. 10) is on record as “dilated at any time after administration as compared to the control”. The “severity of dilatation of the blood vessel diameter by blood vessel size” value in assay [1] (3 mg/kg intravenously, thick 35-45 μm, medium 15-20 μm, thin 7-9 μm) was “remarkably observed in the smaller blood vessels”. Besides, the “bleeding area / bleeding area proportion” value in assay [2] (rat mesentery, LPS 20 ng/sight, 1 mg/kg intravenously then 1 mg/kg per hour, up to 180 minutes, n=1, FIGS. 12 and 13) was “no bleeding was observed after the LPS administration”. The “rolling phenomena of leukocytes in the blood vessel” value in assay [2] (rat, after LPS instillation, compared to the control) is reported as “a large number of rolling phenomena of leukocytes were observed”.
